Data on 29 compounds can be found in patent publication US20230084927A1, “GLUCOSE UPTAKE INHIBITORS AND USES THEREOF” (METABOMED LTD., priority 2019, published 2023).

Test [1] relates to SDH-KO-HRAS cells (SDHB-deficient). The experiment in a line: Cellular / differential toxicity assay (CellTiter-Glo, 3 days). It is filed as cell-based, murine. Particulars: toxicity, SDH-KO cells, 3 days, CellTiter-Glo, read-out: EC50 (uM) SDH-KO-HTAS-C17. In outline:
(§1)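 Isogenic SDHB-deficient (HRAS-transformed SDH-KO) and SDH-WT cells grown in DMEM-F12 with 1 mM glutamine and 3% FBS, plated with compound (10-point dilution from 10 uM to 0.0065 uM or lower) for 3 days at 37 °C, 5% CO2. Viability by CellTiter-Glo luminescence; EC50 calculated.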

A further test deals with SDH-WT cells. The description is as above. Type of test: cell-based, murine. Particulars: toxicity, SDH-WT cells, 3 days, CellTiter-Glo, read-out: EC50 (uM) SDH-WT. Summed up:
as §1
A general note: ATP-based viability assays read luminescence as a measure of living cells.

Read-outs that look alike come from different tables or passages of the source.

With `CCCCNc1ncnc2c1sc1nc3c(cc12)COC(C)(C)C3` [Compound 294], the EC50 (in test [1]; in the test with SDH-WT cells) was over 10 µM throughout.
Regarding `CC1(C)Cc2nc3sc4c(NN)ncnc4c3cc2CO1` [Compound 295], the concentration giving a half-maximal response (EC50) – broadly, the concentration at which the effect is half-maximal – was over 10 µM in test [1] (Mus musculus, 72 h) and over 10 µM with SDH-WT cells (Mus musculus, 72 h).
As for `C=CCNc1ncnc2c1sc1nc3c(cc12)COC(C)(C)C3` [Compound 296], the EC50 in test [1] is 3 to 10 µM; in the test with SDH-WT cells, over 10 µM.
Take `CCN(CC)c1ncnc2c1sc1nc3c(cc12)COC(C)(C)C3` [Compound 297]: the EC50 in test [1] (Mus musculus, 72 h) was 3 to 10 µM; with SDH-WT cells (Mus musculus, 72 h), over 10 µM.
Consider `CC1(C)Cc2nc3sc4c(N5CCCC5)ncnc4c3cc2CO1` [Compound 298], for which the EC50 in test [1] (Mus musculus, 72 h) is over 10 µM; in the test on SDH-WT cells (Mus musculus, 72 h) it was over 10 µM.
Turning to `CCC(C)Nc1ncnc2c1sc1nc3c(cc12)COC(C)(C)C3` (stereo not shown) [Compound 299], the EC50 in test [1] (Mus musculus, 72 h) is over 10 µM; in the test on SDH-WT cells (Mus musculus, 72 h), over 10 µM.
Regarding `CCCN(CCC)c1ncnc2c1sc1nc3c(cc12)COC(C)(C)C3` [Compound 300], the EC50 in test [1] (Mus musculus, 72 h) was 3 to 10 µM; in the test with SDH-WT cells (Mus musculus, 72 h), 3 to 10 µM.
As to `COc1ccc(CCn2cnc3c(sc4nc5c(cc43)COC(C)(C)C5)c2=O)cc1F` [Compound 301], the EC50 was over 10 µM in test [1] (Mus musculus, 72 h) and over 10 µM in the test on SDH-WT cells (Mus musculus, 72 h).
Turning to `CCOC(=O)C1CCc2nc3sc4c(NCCc5ccc(OC)c(F)c5)ncnc4c3cc2C1` (stereo not shown) [Compound 302], the EC50 in test [1] (Mus musculus, 72 h) was over 10 µM; in the test on SDH-WT cells (Mus musculus, 72 h), over 10 µM.
For `COc1ccc(CCNc2ncnc3c2sc2nc4c(cc23)COCC4)cc1F` [Compound 303], the EC50 in test [1] (Mus musculus, 72 h) is under 1 µM; in the test with SDH-WT cells (Mus musculus, 72 h), over 10 µM.
For `CN1C(=O)CCC1n1cnc2ccc(CCNc3ncnc4c3sc3nc5c(cc34)COC(C)(C)C5)cc21` (stereo not shown) [Compound 304] the same measures were under 1 µM and 3 to 10 µM.
As to `COCCOCCOCCOCc1c2c(nc3sc4c(NCCc5ccc6[nH]cnc6c5)ncnc4c13)CC(C)(C)OC2` [Compound 305], the concentration giving a half-maximal response (EC50) in test [1] (Mus musculus, 72 h) is under 1 µM; with SDH-WT cells (Mus musculus, 72 h), over 10 µM.
In the same order, the values of `CC1(C)Cc2nc3sc4c(NCCc5ccc6[nH]cnc6c5)ncnc4c3c(CO)c2CO1` [Compound 306] are over 10 µM and over 10 µM.
In the case of `c1ccc(-c2nc(NCCc3ccc4[nH]cnc4c3)c3sc4ncccc4c3n2)cc1` [Compound 307, N-(2-(1H-Benzo[d]imidazol-5-yl)ethyl)-2-phenylpyrido[3′,2′:4,5]thieno[3,2-d]pyrimidin-4-amine], the half-maximal effective concentration (EC50) was over 10 µM in test [1] (Mus musculus, 72 h) and 3 to 10 µM in the test with SDH-WT cells (Mus musculus, 72 h).
For `Cc1nc(NCCc2ccc3[nH]cnc3c2)c2sc3ncccc3c2n1` [Compound 309, N-(2-(1H-Benzo[d]imidazol-5-yl)ethyl)-2-methylpyrido[3′,2′:4,5]thieno[3,2-d]pyrimidin-4-amine], the EC50 in test [1] (Mus musculus, 72 h) is 3 to 10 µM; in the test on SDH-WT cells (Mus musculus, 72 h), over 10 µM.
As for `c1cnc2sc3c(NCCc4ccc5[nH]cnc5c4)nc(C4CCCCC4)nc3c2c1` [Compound 310, N-(2-(1H-Benzo[d]imidazol-5-yl)ethyl)-2-cyclohexylpyrido[3′,2′:4,5]thieno[3,2-d]pyrimidin-4-amine], the EC50 in test [1] (Mus musculus, 72 h) is over 10 µM; in the test on SDH-WT cells (Mus musculus, 72 h), over 10 µM.
Consider `CC(C)c1nc(NCCc2ccc3[nH]cnc3c2)c2sc3nc4c(cc3c2n1)COC(C)(C)C4` [Compound 311], for which the EC50 is 1 to 3 µM in test [1] (Mus musculus, 72 h) and over 10 µM in the test with SDH-WT cells (Mus musculus, 72 h).
For `CC(C)c1nc(NCCc2ccc3[nH]cnc3c2)c2sc3ncccc3c2n1` [Compound 312, N-(2-(1H-Benzo[d]imidazol-5-yl)ethyl)-2-isopropylpyrido[3′,2′:4,5]thieno[3,2-d]pyrimidin-4-amine] the same measures were 3 to 10 µM and 3 to 10 µM.
In the same order, the values of `Cc1nc(NCCc2ccc3[nH]cnc3c2)c2sc3nc4c(cc3c2n1)COC(C)(C)C4` [Compound 313] are 3 to 10 µM and 3 to 10 µM.
For `CCCc1nc(NCCc2ccc3[nH]cnc3c2)c2sc3nc4c(cc3c2n1)COC(C)(C)C4` [Compound 314] the same measures were 3 to 10 µM and 3 to 10 µM.
Regarding `CC1(C)Cc2nc3sc4c(NCCc5ccc6[nH]cnc6c5)nc(-c5ccccc5)nc4c3cc2CO1` [Compound 315], the EC50 in test [1] (Mus musculus, 72 h) is 1 to 3 µM; in the test with SDH-WT cells (Mus musculus, 72 h), 3 to 10 µM.
For `c1cnc2sc3c(NCCc4ccc5[nH]cnc5c4)nc(C4CCCC4)nc3c2c1` [Compound 316, N-(2-(1H-Benzo[d]imidazol-5-yl)ethyl)-2-cyclopentylpyrido[3′,2′:4,5]thieno[3,2-d]pyrimidin-4-amine] the same measures were 3 to 10 µM and 3 to 10 µM.
Regarding `COCCOCCOCCOCCNC(=O)c1c2c(nc3sc4c(NCCc5ccc6[nH]cnc6c5)ncnc4c13)CC(C)(C)OC2` [Compound 317, 4-((2-(1H-Benzo[d]imidazol-5-yl)ethyl)amino)-8,8-dimethyl-N-(2,5,8,11-tetraoxatridecan-13-yl)-7,10-dihydro-8H-pyrano[3″,4″:5′,6′]pyrido[3′,2′:4,5]thieno[3,2-d]pyrimidine-11-carboxamide], the EC50 in test [1] (Mus musculus, 72 h) lay in the range of 3 to 10 µM; in the test with SDH-WT cells (Mus musculus, 72 h) it was 3 to 10 µM.
On to `CC1(C)Cc2nc3sc4c(NCCc5ccc6[nH]cnc6c5)ncnc4c3c(-c3cncs3)c2CO1` [Compound 318], for which the EC50 in test [1] (Mus musculus, 72 h) is under 1 µM; in the test with SDH-WT cells (Mus musculus, 72 h) it was under 1 µM.
Turning to `CSCc1c2c(nc3sc4c(NCCc5ccc6[nH]cnc6c5)ncnc4c13)CC(C)(C)OC2` [Compound 319, N-(2-(1H-Benzo[d]imidazol-5-yl)ethyl)-8,8-dimethyl-11-((methylthio)methyl)-7,10-dihydro-8H-pyrano[3″,4″:5′,6′]pyrido[3′,2′:4,5]thieno[3,2-d]pyrimidin-4-amine], the EC50 in test [1] (Mus musculus, 72 h) was under 1 µM; in the test on SDH-WT cells (Mus musculus, 72 h), 1 to 3 µM.
For `COCCOCCOCCNCc1c2c(nc3sc4c(NCCc5ccc6[nH]cnc6c5)ncnc4c13)CC(C)(C)OC2` [Compound 320, N-(2-(1H-Benzo[d]imidazol-5-yl)ethyl)-11-(5,8,11-trioxa-2-azadodecyl)-8,8-dimethyl-7,10-dihydro-8H-pyrano[3″,4″:5′,6′]pyrido[3′,2′:4,5]thieno[3,2-d]pyrimidin-4-amine] the same measures were 3 to 10 µM and 3 to 10 µM.
For `COCCOCCOCCOCCNCc1c2c(nc3sc4c(NCCc5ccc6[nH]cnc6c5)ncnc4c13)CC(C)(C)OC2` [Compound 321, N-(2-(1H-Benzo[d]imidazol-5-yl)ethyl)-8,8-dimethyl-11-(5,8,11,14-tetraoxa-2-azapentadecyl)-7,10-dihydro-8H-pyrano[3″,4″:5′,6′]pyrido[3′,2′:4,5]thieno[3,2-d]pyrimidin-4-amine] the same measures were 1 to 3 µM and 3 to 10 µM.
For `CC1(C)Cc2nc3sc4c(NCCc5ccc6[nH]cnc6c5)ncnc4c3c(COc3ccccc3)c2CO1` [Compound 322, N-(2-(1H-Benzo[d]imidazol-5-yl)ethyl)-8,8-dimethyl-11-(phenoxymethyl)-7,10-dihydro-8H-pyrano[3″,4″:5′,6′]pyrido[3′,2′:4,5]thieno[3,2-d]pyrimidin-4-amine], the EC50 in test [1] (Mus musculus, 72 h) is under 1 µM; in the test with SDH-WT cells (Mus musculus, 72 h), under 1 µM.
For the compound `CC(C)COCc1c2c(nc3sc4c(NCCc5ccc6[nH]cnc6c5)ncnc4c13)CC(C)(C)OC2` [Compound 323, N-(2-(1H-Benzo[d]imidazol-5-yl)ethyl)-11-(isobutoxymethyl)-8,8-dimethyl-7,10-dihydro-8H-pyrano[3″,4″:5′,6′]pyrido[3′,2′:4,5]thieno[3,2-d]pyrimidin-4-amine], the EC50 is under 1 µM in test [1] (Mus musculus, 72 h) and under 1 µM in the test with SDH-WT cells (Mus musculus, 72 h).
